# Test results as given in publication PMC12409580, “Modulating Receptor Activity, Immune Response, and Kinetic Solubility: The Impact of Linker Chemistry in Conjugated NOD2/TLR4 Agonists” (ACS Omega, 2025).
# “Also recorded” adds a separate entry of the source. Marks after values point to notes of the source that are not given here.
# Experiments:
# [1] = set-up: method as in previously reported; conditions: ref previously reported; cited from earlier work
# [2] = Kinetic solubility in PBS (HPLC solubility assay); conditions: PBS, aqueous buffer, kinetic from dmso stock
# [3] = set-up: method as in previous studies; conditions: kinetic solubility; ref previous studies; cited from earlier work
# NOD2 = NOD2 (Homo sapiens, UniProt Q9HC29); test: NOD2 NF-κB SEAP reporter assay in HEK-Blue hNOD2 cells
# Sequence of NOD2 (Q9HC29 whole entry): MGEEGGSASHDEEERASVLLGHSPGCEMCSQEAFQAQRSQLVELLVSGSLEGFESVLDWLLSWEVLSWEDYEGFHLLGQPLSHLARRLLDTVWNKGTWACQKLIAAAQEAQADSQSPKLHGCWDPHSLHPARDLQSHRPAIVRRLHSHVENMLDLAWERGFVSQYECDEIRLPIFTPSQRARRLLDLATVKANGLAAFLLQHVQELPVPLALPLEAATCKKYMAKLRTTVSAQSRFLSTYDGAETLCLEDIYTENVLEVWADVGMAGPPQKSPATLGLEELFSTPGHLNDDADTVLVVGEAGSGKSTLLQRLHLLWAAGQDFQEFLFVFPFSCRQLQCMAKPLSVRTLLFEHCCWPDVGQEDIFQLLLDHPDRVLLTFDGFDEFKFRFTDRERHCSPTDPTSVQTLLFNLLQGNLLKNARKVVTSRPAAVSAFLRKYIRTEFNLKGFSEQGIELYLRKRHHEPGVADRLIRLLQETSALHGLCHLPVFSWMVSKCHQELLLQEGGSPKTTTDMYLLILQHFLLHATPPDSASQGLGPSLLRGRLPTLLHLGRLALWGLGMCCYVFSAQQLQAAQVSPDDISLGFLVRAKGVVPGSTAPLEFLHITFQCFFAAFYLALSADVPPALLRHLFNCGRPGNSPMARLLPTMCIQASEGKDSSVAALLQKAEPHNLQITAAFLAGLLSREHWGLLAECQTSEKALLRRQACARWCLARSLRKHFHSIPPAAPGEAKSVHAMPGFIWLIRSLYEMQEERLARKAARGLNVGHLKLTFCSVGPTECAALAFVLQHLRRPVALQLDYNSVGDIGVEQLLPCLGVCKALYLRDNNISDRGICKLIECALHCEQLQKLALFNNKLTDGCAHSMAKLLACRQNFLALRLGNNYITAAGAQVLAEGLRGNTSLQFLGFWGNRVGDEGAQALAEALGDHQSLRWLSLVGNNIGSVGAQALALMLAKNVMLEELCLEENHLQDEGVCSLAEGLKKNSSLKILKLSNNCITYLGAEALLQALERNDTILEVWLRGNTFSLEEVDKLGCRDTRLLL
# human PBMCs = conditions: 1 μM, 18 h
# TLR4 = TLR4 (Homo sapiens, UniProt O00206+Q9Y6Y9); test: TLR4 NF-κB SEAP reporter assay in HEK-Blue hTLR4 cells
# Sequence of TLR4 (O00206 24-839): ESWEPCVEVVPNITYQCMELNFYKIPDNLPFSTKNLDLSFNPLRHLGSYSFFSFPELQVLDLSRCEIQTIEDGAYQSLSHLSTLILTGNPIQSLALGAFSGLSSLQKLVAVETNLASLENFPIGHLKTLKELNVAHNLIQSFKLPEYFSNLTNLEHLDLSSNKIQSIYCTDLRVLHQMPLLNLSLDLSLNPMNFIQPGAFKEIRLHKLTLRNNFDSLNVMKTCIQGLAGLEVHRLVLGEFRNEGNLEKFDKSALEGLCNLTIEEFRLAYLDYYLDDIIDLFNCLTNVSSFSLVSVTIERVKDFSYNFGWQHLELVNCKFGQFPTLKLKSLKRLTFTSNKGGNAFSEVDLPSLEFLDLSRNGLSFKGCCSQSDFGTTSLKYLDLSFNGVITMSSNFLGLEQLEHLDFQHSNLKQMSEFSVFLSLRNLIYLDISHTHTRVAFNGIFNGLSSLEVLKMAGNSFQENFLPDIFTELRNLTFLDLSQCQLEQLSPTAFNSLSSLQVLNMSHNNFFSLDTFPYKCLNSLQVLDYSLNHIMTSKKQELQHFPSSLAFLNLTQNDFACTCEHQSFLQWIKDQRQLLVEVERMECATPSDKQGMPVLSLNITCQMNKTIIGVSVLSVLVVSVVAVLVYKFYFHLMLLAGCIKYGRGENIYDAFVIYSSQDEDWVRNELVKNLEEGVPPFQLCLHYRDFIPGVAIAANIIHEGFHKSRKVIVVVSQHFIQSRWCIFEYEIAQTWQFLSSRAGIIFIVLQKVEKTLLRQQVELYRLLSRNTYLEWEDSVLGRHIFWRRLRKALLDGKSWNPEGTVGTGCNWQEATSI
# Sequence of TLR4 (Q9Y6Y9 17-160 limits assumed): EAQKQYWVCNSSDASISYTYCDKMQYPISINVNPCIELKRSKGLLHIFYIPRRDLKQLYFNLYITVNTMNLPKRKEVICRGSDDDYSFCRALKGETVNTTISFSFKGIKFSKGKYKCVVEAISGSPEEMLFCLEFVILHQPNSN
# [4] = Solubility sample 1, Tables S1–S3, replicate 1
# [5] = Solubility sample 2, Tables S1–S3, replicate 2
# [6] = solubility in PBS, kinetic solubility, HPLC solubility assay
# [7] = 10 μM, 18 h, NF-κB transcriptional activity (SEAP) relative to 0.1% DMSO
Compound,immunostimulatory activity [1],"solubility [2, 4]","solubility [2, 5]","solubility [2, 6]",solubility in PBS [3],"NOD2 activation, fold increase (NOD2; 2 μM, 18 h, NF-κB transcriptional activity (SEAP) relative to 0.1% DMSO)",overall cytokine production (human PBMCs),"production of IL-6, IL-10, TNF-α, and IFN-γ (human PBMCs)","NOD2 activation at 10 μM, fold increase (NOD2; [7])",NOD2 agonist activity (NOD2; compared with NOD2 agonist 3 and MDP (4 μM)),"TLR4 activation at 10 μM, fold increase (TLR4; [7])","maximum TLR4 activation (TLR4; HEK-Blue hTLR4, 21 at 10 μM)",concentration at which compound activated TLR4 (TLR4; dose-response 0.5–10 μM (17–21) or 1–100 μM (27–31))
"COc1cc(/C=C/C(=O)NCC(=O)N[C@H](C(=O)N[C@H](CCC(=O)OC2CCCC2)C(=O)OC2CCCC2)C(C)C)ccc1OC(=O)CCCCCNC(=O)CSc1nc2c([nH]c3ccccc32)c(=O)n1-c1ccccc1 [Compound 2, reference compound]",inactivity; also recorded: lacked immunostimulatory activity,0.26 µM,0.44 µM,0.35 µM,,,,,,,,,
"CCOC(=O)C(CCC(=O)O)NC(=O)C(NC(=O)CNC(=O)C=Cc1ccc(O)c(OC)c1)C(C)C (stereo not shown) [Compound 3, reference compound]",,,,,414.8 ^c μM,3.06 ^d fold increase,,,,,,,
"CCOC(=O)[C@@H](CCC(=O)N1CCC(CN2CCN(C(=O)Cc3ccc(C(C(=O)NC4CCCC4)N(C(=O)c4cc(-c5ccccc5)n(-c5ccccc5)n4)c4ccc5c(c4)CCC5)cc3)CC2)CC1)NC(=O)[C@@H](NC(=O)CNC(=O)/C=C/c1ccc(O)c(OC)c1)C(C)C (stereo partly drawn) [Compound 21, Ethyl (2R)-5-(4-((4-(2-(4-(2-(Cyclopentylamino)-1-(N-(2,3-dihydro-1H-inden-5-yl)-1,5-diphenyl-1H-pyrazole-3-carboxamido)-2-oxoethyl)phenyl)acetyl)piperazin-1-yl)methyl)piperidin-1-yl)-2-((S)-2-(2-((E)-3-(4-hydroxy-3-methoxyphenyl)acrylamido)acetamido)-3-methylbutanamido)-5-oxopentanoate]",,0.34 µM,0.32 µM,0.33 µM,,,most potent immunomodulator in the series,moderately enhanced,3.31 fold increase,comparable efficiency to MDP,5.30 fold increase,5.30 fold,0.5 µM
